Patent publication US20250281457A1, “TREATMENT OR PREVENTION OF DENGUE VIRAL INFECTION” (Janssen Pharmaceuticals, Inc., priority 2022, published 2025)
Marks after values point to notes of the source that are not given here.

Assays:
Assay type in all cases: in vivo, human
[1] = Safety and tolerability, adverse events (Example 1)
Description: Safety and tolerability of Compound (a) was evaluated throughout the study, by recording the adverse events (AE) and their grade, as reported by the participants. An AE is any untoward medical occurrence in a subject administered the pharmaceutical formulation comprising Compound (a). […] An AE can therefore be any unfavorable and unintended sign (including an abnormal finding), symptom, or disease temporally associated with the use of the pharmaceutical formulation comprising Compound (a), whether or not related to the administration of the pharmaceutical formulation comprising Compound (a) (definition per International Conference on Harmonisation [ICH].) This includes any occurrence that is new in onset or aggravated in severity or frequency from the baseline condition, or abnormal results of diagnostic procedures, including laboratory test abnormalities. Grade refers to the severity of the AE, according to the below guideline: • Grade 1 Mild: transient or mild discomfort (<48 hours); no medical intervention/therapy required. • Grade 2 Moderate: mild to moderate limitation in activity; some assistance may be needed; no or minimal medical intervention/therapy required. • Grade 3 Severe: marked limitation in activity; some assistance usually required; medical intervention/therapy required; hospitalizations possible. • Grade 4 Potentially Life-threatening: Extreme limitation in activity; significant assistance required; significant medical intervention/therapy required; hospitalization or hospice care probable. All reported AEs with onset during the treatment phase and AEs that have worsened since baseline (ie, treatment-emergent AEs (TEAEs)) were included in the analysis.

[2] = Safety and tolerability, adverse events (Example 5)
Description: (§1) Safety and tolerability of Compound (a) was evaluated throughout the study, as described in Example 1.

[3] = Safety and tolerability, TEAEs (Example 2)
Description: as §1

[4] = Panel 1 (400 mg fasted: Treatment A oral solution and Treatment B SF1b)
[5] = Panels 1 and 2 (400 mg fasted; oral solution, SF1b, SF2b)

Structure (SMILES): COc1cc(NC(C(=O)c2c[nH]c3ccc(OC(F)(F)F)cc23)c2ccc(Cl)cc2OC)cc(S(C)(=O)=O)c1 (stereo not shown) [Compound (a)]
- Related adverse events, Grade 1 [1, 4]: two Grade 1 AEs of throat irritation and dermatitis on one subject, and throat irritation and dermaturia in another subject
- Related adverse events, Grade 2 [1, 4]: one Grade 2 AE of headache and dermatitis
- Related adverse events, Grade 1 ([1]; Panel 2 (400 mg fasted: Treatment A oral solution and Treatment C SF2b)): two Grade 1 AEs of headache and dermatitis each in one subject
- Grade 1 Treatment Emergent Events, overall [1, 5]: 11
- Grade 2 Treatment Emergent Events, overall [1, 5]: 7
- Grade 3 Treatment Emergent Events, overall [1, 5]: One
- Grade 4 Treatment Emergent Events, overall [1, 5]: No
- Related adverse events ([2]; Panel I (LD 450 mg twice daily for two days, MD 900 mg Q7D)): no related AEs
- Related adverse events ([2]; Panel II (LD 450 mg twice daily for two days, MD 450 mg Q3D or Q4D)): one Grade 1 AE of skin burning sensation considered related
- Related adverse events ([2]; Panel III (LD 150 mg twice daily for two days, MD 300 mg Q7D)): no related AEs
- Related adverse events ([2]; Panel IV (LD 150 mg twice daily for two days, MD 150 mg Q3D or Q4D)): two Grade 1 AE of pruritic rash considered related
- Grade 2 Treatment Emergent Events, overall ([2]; Panels I-IV): 4
- Grade 3 Treatment Emergent Events, overall ([2]; Panels I-IV): No
- Safety and tolerability, overall conclusion ([2]; Panels I-IV): safe and well tolerated
- serious adverse events (SAEs) or/and serious unexpected adverse reactions (SUSARs) observed ([2]; Panels I-IV): No
- at least 1 TEAE reported ([3]; Panel 3, Treatment D (800 mg, fasted)): 9 (69.2%) # Participants (%)
- at least 1 TEAE reported ([3]; Panel 3, Treatment E (800 mg, fed, standardized breakfast)): 6 (40.0%) # Participants (%)
- at least 1 TEAE reported ([3]; Panel 4, Treatment F (200 mg, fasted)): 6 (46.2%) # Participants (%)
- at least 1 TEAE reported ([3]; Panel 4, Treatment G (200 mg, fed, standardized breakfast)): 7 (58.3%) # Participants (%)
- at least 1 TEAE reported ([3]; Panel 5, Treatment H (50 mg, fasted)): 5 (38.5%) # Participants (%)
- at least 1 TEAE reported ([3]; Panel 5, Treatment I (50 mg, fed, standardized breakfast)): 8 (66.7%) # Participants (%)
- Safety and tolerability, overall conclusion ([3]; single doses 50-800 mg SF2a/b, fasted or fed): safe and well tolerated
